We go through nine compounds from patent publication US8053577B2, “Derivatives of 5,9-methanocycloocta[b]pyridin-2-(1H)-one, their preparation and use as analgesics” (priority 2006, dated 2011).

Data set [1] can be described thus: Acute toxicity (LD50) in mice. The note with it: mouse, in vivo, oral administration. The source says: In view of the above-described problems, this invention relates to a series of analgesic 5,9-methanocycloocta[b]pyridin-2(H)-one derivatives.
The compounds of Formula I release huperzine A after p.o. administration. The amount of huperzine A released in artificial gastric fluid at various time intervals after administration of (5R,9R,11E)-5-(3-phenylprop-2-en-1-ylideneamino)-11-ethylidene-5,6,9,10-tetrahydro-7-methyl-5,9-methanocycloocta[b]pyridin-2(1H)-one is listed in Table 2. […] Accordingly, (5R,9R,11E)-5-(3-phenylprop-2-en-1-ylideneamino)-11-ethylidene-5,6,9,10-tetrahydro-7-methyl-5,9-methanocycloocta[b]pyridin-2(1H)-one is a pro-drug of huperzine A, and releases huperzine A in a sustained fashion. Sustained release of huperzine A can well explain lower toxicity of compounds of Formula I compared with Huperzine A (see Table 1).

The next data set deals with mice. Briefly: Analgesic effect of intragastric administration on mice measured with hot-plate test. It counts as in vivo, ICR mice. The note with it: x ± s, n = 10; for pain-threshold after administration / pain-threshold before administration: time course; for pain-threshold before administration / pain threshold before administration: baseline. As to the method:
The analgesic effect with a single dose of the compounds represented by Formula I is preliminarily screened at single time point through hot-plate test, with fortanodyn and aspirin as positive controls. All of the compounds are administered intragastrically.
On the basis of preliminary screening results, several representative compounds were selected to test their analgesic duration, and a part of the results is listed in Table 4. The results illustrate that the analgesic duration of most compounds is longer than 2 hours after a single oral administration, and that some of the compounds have analgesic duration lasting longer than 4 hours.
Furthermore, the dose-effect relationship on an analgesic model of two compounds was tested and the results are shown in Table 5.
Analgesic effect of intragastric administration on mice measured with hot-plate test
Female ICR mice, weight 20+2 g, were purchased from Department of Laboratory Animal Science, Beijing University, animal license number: SCXK 2002-0001.
A) Samples: samples were prepared as mixtures with 0.9% NaCl solution for intragastric administration to mice.
B) Fortanodyn: 30 mg/pill (TianJin LiSheng Pharmaceutical Co. Ltd, lot number: 0201001), 1.5 mg/mL solution was prepared with 0.9% NaCl solution for intragastric administration to mice.
1) Hot-plate test on mice was employed. A thermostatic water bath was adjusted at 55±0.5° C., the bottom of metal plates contacted water surface and used as stimuli after heating. The time span(s) from the point when the mouse was placed onto the hot-plate to the time when the mouse started to lick its metapedes was determined as its pain threshold, which was recorded by stopwatch. Female mice with a weight of 20±2 g were used. The pain threshold of every mouse was measured twice before administration, and the qualified mice are the ones whose average pain threshold was less than 30 seconds.
The qualified mice were randomly grouped with 10 mice in each group. The pain threshold before administration was determined as the basic pain threshold. To the medication administration team, drugs of different dose were given through intragastric administration, whereas to the control group, 0.9% NaCl solution was given. The administration volume was 0.2 mL for every 10 g body weight. The pain threshold of each group was measured at 1 hour after administration.
After administration the pain threshold of each group at different time was measured. The experimental data was statistically treated with t-test using SPSS10 statistics software.
On the technique in general: In hot-plate and tail-flick tests a longer latency is read as antinociception.

Setting [2] is: 0.84 mg/kg intragastric, 30 min.
[3] abbreviates: 0.84 mg/kg intragastric, 60 min.
Setting [4] is: 0.84 mg/kg intragastric, 120 min.
The mark [5] stands for this setting: 0.84 mg/kg intragastric, 180 min.
Where [6] appears, read: group dosed 0.84 mg/kg intragastric.
The mark [7] stands for this setting: Table 3 screening, 0.6 mg/kg intragastric, 1 hour.
The mark [8] stands for this setting: Table 3 screening, group dosed 0.6 mg/kg intragastric.

The structures appear in SMILES notation.

The compound `C/C=C1\[C@H]2C=C(C)C[C@]1(N)c1ccc(=O)[nH]c1C2` [Example 1, (5R,9R,11E)-5-amino-11-ethylidene-5,6,9,10-tetrahydro-7-methyl-5,9-methanocycloocta[b]pyridin-2(1H)-one, reference compound] yielded an LD50 in data set [1] of 3.8 mg/kg.
For `C/C=C1\[C@H]2C=C(C)C[C@]1(/N=C/C=C/c1ccccc1)c1ccc(=O)[nH]c1C2` [Example 2, (5R,9R,11E)-5-(3-phenylprop-2-en-1-ylideneamino)-11-ethylidene-5,6,9,10-tetrahydro-7-methyl-5,9-methanocycloocta[b]pyridin-2(1H)-one], in data set [1], the LD50 is 26.5 mg/kg. The pain-threshold after administration is reported as 34.0 ± 11.42 s in the data set on mice (0.73 mg/kg intragastric, 30 min); 36.5 ± 10.91 s in the data set on mice (0.73 mg/kg intragastric, 60 min); 29.0 ± 7.83 s in the data set on mice (0.73 mg/kg intragastric, 120 min); 24.0 ± 5.44 s with mice (0.73 mg/kg intragastric, 180 min); 18.3 ± 5.31 s with mice (0.73 mg/kg intragastric, 240 min).
As to `C/C=C1\[C@H]2C=C(C)C[C@]1(/N=C/C=C/c1ccc(Cl)cc1)c1ccc(=O)[nH]c1C2` [Example 14, (5R,9R,11E)-5-(3-(4-chlorophenyl)prop-2-en-1-ylideneamino)-11-ethylidene-5,6,9,10-tetrahydro-7-methyl-5,9-methanocycloocta[b]pyridin-2(1H)-one], the LD50 in data set [1] stood at 35.6 mg/kg. For the same compound, the pain-threshold after administration with mice (0.81 mg/kg intragastric, 30 min) turned out to be 47.9 ± 12.95 s; in the data set with mice (0.81 mg/kg intragastric, 60 min), 45.9 ± 15.42 s; in the data set on mice (0.81 mg/kg intragastric, 120 min) it was 31.0 ± 12.04 s; in the data set on mice (0.81 mg/kg intragastric, 180 min) it was 25.1 ± 8.10 s; with mice (0.81 mg/kg intragastric, 240 min), 26.2 ± 9.69 s. Further, the pain-threshold before administration with mice (group dosed 0.81 mg/kg intragastric) stood at 12.6 ± 4.25 s.
On to `C/C=C1\[C@H]2C=C(C)C[C@]1(/N=C/C=C/c1ccco1)c1ccc(=O)[nH]c1C2` [Example 21, (5R,9R,11E)-5-(3-(furan-2-yl)prop-2-en-1-ylideneamino)-11-ethylidene-5,6,9,10-tetrahydro-7-methyl-5,9-methanocycloocta[b]pyridin-2(1H)-one], for which the “pain threshold after administration” value with mice (dose-effect, 0.42 mg/kg intragastric, 30 min) is 16.3 ± 4.47 s; in the data set with mice (dose-effect, 0.42 mg/kg intragastric, 60 min), 16.4 ± 4.03 s; in the data set on mice (dose-effect, 0.42 mg/kg intragastric, 120 min), 13.2 ± 2.86 s; in the data set on mice (dose-effect, 0.42 mg/kg intragastric, 180 min), 14.1 ± 1.66 s. Also, in the data set on mice (dose-effect, group dosed 0.42 mg/kg intragastric), the “pain threshold before administration” value is 12.5 ± 2.79 s. For the same compound, the pain-threshold after administration with mice (0.71 mg/kg intragastric, 30 min) was 17.2 ± 6.37 s; in the data set on mice (0.71 mg/kg intragastric, 60 min), 21.0 ± 8.77 s; with mice (0.71 mg/kg intragastric, 120 min), 16.9 ± 8.32 s; in the data set with mice (0.71 mg/kg intragastric, 180 min), 12.9 ± 3.87 s; in the data set on mice (setting [2]) it was 23.3 ± 7.45 s; in the data set on mice (setting [3]), 28.1 ± 10.15 s. For the same compound, the pain-threshold after administration in the data set on mice (setting [4]) came to 14.9 ± 5.02 s; with mice (setting [5]), 13.7 ± 2.98 s. For the same compound, the pain-threshold before administration in the data set with mice (group dosed 0.71 mg/kg intragastric) is 11.9 ± 3.90 s; in the data set with mice (setting [6]), 12.3 ± 3.86 s.
Regarding `C/C=C1\C2C=C(C)CC1(/N=C/C=C/c1ccc3ccccc3c1)c1ccc(=O)[nH]c1C2` [Example 22, (5R,9R,11E)-5-(3-(naphthalen-2-yl)prop-2-en-1-ylideneamino)-11-ethylidene-5,6,9,10-1,7-dimethyl-5,9-methanocycloocta[b]pyridin-2(1H)-one], the “pain threshold after administration” value in the data set with mice (setting [7]) is listed as 23.6 ± 4.27 s. Also, in the data set with mice (setting [8]), the “pain threshold before administration” value was found to be 12.4 ± 4.13 s.
The compound `C/C=C1\C2C=C(C)CC1(/N=C/C=C/c1cccc3ccccc13)c1ccc(=O)[nH]c1C2` [Example 23, (5R,9R,11E)-5-(3-(naphthalen-1-yl)prop-2-en-1-ylideneamino)-11-ethylidene-5,6,9,10-1,7-dimethyl-5,9-methanocycloocta[b]pyridin-2(1H)-one] yielded an LD50 in data set [1] of 43.2 mg/kg. Further, the pain-threshold after administration amounted to 23.3 ± 7.45 s in the data set with mice (setting [2]), 28.1 ± 10.15 s with mice (setting [3]), 14.9 ± 5.02 s with mice (setting [4]) and 13.7 ± 2.98 s in the data set on mice (setting [5]). The pain-threshold before administration with mice (setting [6]) is recorded as 12.3 ± 3.86 s.
`C/C=C1\C2C=C(C)CC1(/N=C/C=C/c1c3ccccc3cc3ccccc13)c1ccc(=O)[nH]c1C2` [Example 26, (5R,9R,11E)-5-(3-(anthracen-9-yl)prop-2-en-1-ylideneamino)-11-ethylidene-5,6,9,10-1,7-dimethyl-5,9-methanocycloocta[b]pyridin-2(1H)-one]: the “pain threshold after administration” value with mice (setting [7]) came to 20.8 ± 3.60 s.
As for `C/C=C1\C2C=C(C)CC1(/N=C\c1ccc(/C=C/C=N/C34CC(C)=CC(Cc5[nH]c(=O)ccc53)/C4=C\C)cc1)c1ccc(=O)[nH]c1C2` (stereo not drawn) [Example 27], in the data set on mice (setting [7]), the “pain threshold after administration” value was 21.2 ± 5.53 s. Also, the “pain threshold before administration” value in the data set with mice (setting [8]) is recorded as 12.4 ± 3.14 s.
Take `C/C=C1\C2C=C(C)CC1(/N=C\C=C\c1ccc(/C=C/C=N/C34CC(C)=CC(Cc5[nH]c(=O)ccc53)/C4=C\C)cc1)c1ccc(=O)[nH]c1C2` [Example 28]: the “pain threshold after administration” value in the data set on mice (setting [7]) was 23.4 ± 3.88 s. For the same compound, the “pain threshold before administration” value in the data set with mice (setting [8]) was determined as 12.6 ± 2.73 s.

The LD50 is the dose expected to kill half of the subjects tested. The low end stands for a more toxic substance, the high end for a less toxic substance.
